Results as given in ChEMBL document CHEMBL1201862, “PubChem BioAssay data set” (2004).
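Cells were grown in 96-well plates and exposed to each compound for 48 hours at five concentrations; endpoints were interpolated linearly between bracketing concentrations, or set to the highest concentration if not reached. Here, GI50 denotes the concentration required for 50% inhibition of growth.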 Activity calls are given as the source filed them. No stated cut-off is given here; in the data, active = GI50 up to about 1.1 µM and inactive = higher.

Columns and labels:
Experiment in all cases: NCI anticancer screen, dose series, 48 h
786-0 = tested on: 786-0
A498 = tested on: A498
A549 = tested on: A549
ACHN = tested on: ACHN
BT-549 = tested on: BT-549
CAKI-1 = tested on: CAKI-1
CCRF-CEM = tested on: CCRF-CEM
COLO 205 = tested on: COLO 205
DU-145 = tested on: DU-145
EKVX = tested on: EKVX
HCC 2998 = tested on: HCC 2998
HCT-116 = tested on: HCT-116
HCT-15 = tested on: HCT-15
HOP-62 = tested on: HOP-62
HOP-92 = tested on: HOP-92
HT-29 = tested on: HT-29
Hs-578T = tested on: Hs-578T
IGROV-1 = tested on: IGROV-1
K562 = tested on: K562
KM12 = tested on: KM12
LOX IMVI = tested on: LOX IMVI
M14 = tested on: M14
MCF7 = tested on: MCF7
MDA-MB-231 = tested on: MDA-MB-231
MDA-MB-435 = tested on: MDA-MB-435
MDA-N = tested on: MDA-N
MOLT-4 = tested on: MOLT-4
Malme-3M = tested on: Malme-3M
NCI-H226 = tested on: NCI-H226
NCI-H23 = tested on: NCI-H23
NCI-H460 = tested on: NCI-H460
NCI-H522 = tested on: NCI-H522
NCI/ADR-RES = tested on: NCI/ADR-RES
OVCAR-3 = tested on: OVCAR-3
OVCAR-4 = tested on: OVCAR-4
OVCAR-5 = tested on: OVCAR-5
OVCAR-8 = tested on: OVCAR-8
PC-3 = tested on: PC-3
RPMI-8226 = tested on: RPMI-8226
RXF 393 = tested on: RXF 393
SF-268 = tested on: SF-268
SF-295 = tested on: SF-295
SF-539 = tested on: SF-539
SK-MEL-28 = tested on: SK-MEL-28
SK-MEL-2 = tested on: SK-MEL-2
SK-MEL-5 = tested on: SK-MEL-5
SK-OV-3 = tested on: SK-OV-3
SN12C = tested on: SN12C
SNB-19 = tested on: SNB-19
SNB-75 = tested on: SNB-75
SR = tested on: SR
SW-620 = tested on: SW-620
T47D = tested on: T47D
TK-10 = tested on: TK-10
U-251 = tested on: U-251
UACC-257 = tested on: UACC-257
UACC-62 = tested on: UACC-62

With `CCOC(=O)/C(=C\c1ccnc2ccccc12)P(=O)(OCC)OCC` the GI50 (786-0) was 1940 nM (inactive), the GI50 (A498) was 1770 nM (inactive) and the GI50 (A549) was 5310 nM (inactive). For the same compound, the GI50 (ACHN) was 2080 nM (inactive), the GI50 (BT-549) was 2160 nM (inactive) and the GI50 (CAKI-1) was 2250 nM (inactive). For the same compound, the GI50 (CCRF-CEM) was 366 nM (active), the GI50 (COLO 205) was 2170 nM (inactive) and the GI50 (DU-145) was 2710 nM (inactive). The GI50 (EKVX) was 4650 nM (inactive), the GI50 (HCC 2998) was 12900 nM (inactive) and the GI50 (HCT-116) was 1990 nM (inactive). The GI50 (HCT-15) was 1470 nM, the GI50 (HOP-62) was 1930 nM (inactive) and the GI50 (HOP-92) was 2490 nM (inactive). For the same compound, the GI50 (HT-29) was 2160 nM (inactive), the GI50 (Hs-578T) was 3210 nM (inactive) and the GI50 (IGROV-1) was 1600 nM (inactive). For the same compound, the GI50 (K562) was 5890 nM (inactive), the GI50 (KM12) was 4010 nM (inactive) and the GI50 (LOX IMVI) was 1570 nM (inactive). For the same compound, the GI50 (M14) was 1930 nM (inactive), the GI50 (MCF7) was 1400 nM (inactive) and the GI50 (MDA-MB-231) was 2110 nM (inactive). The GI50 (MDA-MB-435) was 2750 nM (inactive), the GI50 (MDA-N) was 2300 nM (inactive) and the GI50 (MOLT-4) was 4650 nM (inactive). The GI50 (Malme-3M) was 1330 nM (inactive), the GI50 (NCI-H226) was 10500 nM (inactive) and the GI50 (NCI-H23) was 1900 nM (inactive). The GI50 (NCI-H460) was 3480 nM (inactive), the GI50 (NCI-H522) was 1330 nM (inactive) and the GI50 (NCI/ADR-RES) was 1720 nM (inactive). For the same compound, the GI50 (OVCAR-3) was 1640 nM (inactive), the GI50 (OVCAR-4) was 2260 nM (inactive) and the GI50 (OVCAR-5) was 2250 nM (inactive). For the same compound, the GI50 (OVCAR-8) was 1810 nM (inactive), the GI50 (PC-3) was 5530 nM (inactive) and the GI50 (RPMI-8226) was 2670 nM (inactive). The GI50 (RXF 393) was 2620 nM (inactive), the GI50 (SF-268) was 2530 nM (inactive) and the GI50 (SF-295) was 2990 nM (inactive). The GI50 (SF-539) was 1470 nM (inactive), the GI50 (SK-MEL-28) was 1570 nM (inactive) and the GI50 (SK-MEL-2) was 2060 nM (inactive). The GI50 (SK-MEL-5) was 2840 nM (inactive), the GI50 (SK-OV-3) was 4990 nM (inactive) and the GI50 (SN12C) was 3010 nM (inactive). The GI50 (SNB-19) was 3650 nM (inactive), the GI50 (SNB-75) was 3490 nM (inactive) and the GI50 (SR) was 2240 nM (inactive). For the same compound, the GI50 (SW-620) was 2520 nM (inactive), the GI50 (T47D) was 3180 nM (inactive) and the GI50 (TK-10) was 4430 nM (inactive). For the same compound, the GI50 (U-251) was 2900 nM (inactive), the GI50 (UACC-257) was 3730 nM (inactive) and the GI50 (UACC-62) was 2650 nM (inactive).
